Results on 51 molecules are retold here after the supplement of paper PMC12137928.

Molecules are shown by their SMILES. Counter-ions that a name gives are not always drawn.

For the experiment, the system named is HCT116. The note with it: 72 h. A digest of the protocol: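 For IC50 and maximal efficacy, four-parameter Hill fits were used. Input values were CellTiter-Glo luminescence from HCT116 cells seeded at 250 per well in 1536-well plates, normalized to vehicle (0%) and positive control (-100%). Pattern correction followed normalization.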

As for `CN(C)C(=O)Oc1ccc[n+](C)c1` [Pyridostigmine bromide], the IC50 cell viability runs as follows: (ICRF193 0 nM) above 45.8 µM; (ICRF193 200 nM) above 45.8 µM.
For `CC(=O)OCC1=C(C(=O)O)N2C(=O)[C@@H](NC(=O)Cc3cccs3)[C@H]2SC1` [Cephalothin], the IC50 cell viability (ICRF193 0 nM) was above 45.8 µM and the IC50 cell viability (ICRF193 200 nM) is above 45.8 µM.
As to `c1ccc2sc(SSc3nc4ccccc4s3)nc2c1` [2,2'-Dithiobisbenzothiazole], the IC50 cell viability runs as follows: (ICRF193 0 nM) above 45.8 µM; (ICRF193 200 nM) above 45.8 µM.
Turning to `O=C(CCBr)N1CCN(C(=O)CCBr)CC1` [Pipobroman], the IC50 cell viability is above 45.8 µM (ICRF193 0 nM) and above 45.8 µM (ICRF193 200 nM).
As for `CCS(=O)(=O)CCn1c([N+](=O)[O-])cnc1C` [Tinidazole], the IC50 cell viability by setting is: (ICRF193 0 nM) above 45.8 µM; (ICRF193 200 nM) above 45.8 µM.
`OC(CCN1CCCCC1)(c1ccccc1)C1CCCC1` (configuration not stated) [Cycrimine Hydrochloride]: the IC50 cell viability was above 45.8 µM (ICRF193 0 nM) and above 45.8 µM (ICRF193 200 nM).
In turn, `COc1cccc(CCc2ccccc2OCC(CN(C)C)OC(=O)CCC(=O)O)c1` (configuration not stated) [Sarpogrelate hydrochloride] displayed an IC50 cell viability (ICRF193 0 nM) above 45.8 µM and an IC50 cell viability (ICRF193 200 nM) above 45.8 µM.
For the molecule `CNCCc1ccccn1` [Betahistine mesylate], the IC50 cell viability runs as follows: (ICRF193 0 nM) above 45.8 µM; (ICRF193 200 nM) above 45.8 µM.
As for `CN(C)CCC(c1ccccc1)c1ccccn1` (configuration not stated) [Pheniramine maleate], the IC50 cell viability was above 45.8 µM (ICRF193 0 nM) and above 45.8 µM (ICRF193 200 nM).
Take `NC1CCN(c2nc3c(cc2F)c(=O)c(C(=O)O)cn3-c2ccc(F)cc2F)C1` (configuration not stated) [Tosufloxacin toluenesulfonic acid]: the IC50 cell viability was above 45.8 µM (ICRF193 0 nM) and above 45.8 µM (ICRF193 200 nM).
Take `NCCNCCNCCN` [Triethylenetetramine]: the IC50 cell viability was above 45.8 µM (ICRF193 0 nM) and above 45.8 µM (ICRF193 200 nM).
As to `CCCCC(F)(F)[C@@]1(O)CC[C@H]2[C@@H](CC(=O)[C@@H]2CCCCCCC(=O)O)O1` [Lubiprostone], the IC50 cell viability reads like this: (ICRF193 0 nM) above 45.8 µM; (ICRF193 200 nM) above 45.8 µM.
Turning to `CCCCCCCCCCCC(=O)[O][Sn]([CH2]CCC)([CH2]CCC)[O]C(=O)CCCCCCCCCCC` [Dibutyltin dilaurate], the IC50 cell viability is above 45.8 µM (ICRF193 0 nM) and above 45.8 µM (ICRF193 200 nM).
For `N[C@@H]1CCCCN(c2c(F)cc3c(=O)c(C(=O)O)cn(C4CC4)c3c2Cl)C1` [Besifloxacin Hydrochloride], the IC50 cell viability was above 45.8 µM (ICRF193 0 nM) and above 45.8 µM (ICRF193 200 nM).
As for `C[C@@H](c1ncncc1F)[C@](O)(Cn1cncn1)c1ccc(F)cc1F` [Voriconazole], the IC50 cell viability by setting is: (ICRF193 0 nM) above 45.8 µM; (ICRF193 200 nM) above 45.8 µM.
For the molecule `NC(=O)c1nc(F)cnc1O` [Favipiravir], the IC50 cell viability was above 45.8 µM (ICRF193 0 nM) and above 45.8 µM (ICRF193 200 nM).
Turning to `CC(=O)N(CC(=O)N(C)C)c1ccccc1` [Phenylacetylglycine dimethylamide], the IC50 cell viability is above 45.8 µM (ICRF193 0 nM) and above 45.8 µM (ICRF193 200 nM).
On to `CCC(=O)Oc1ccc2c(c1)CC[C@@H]1[C@@H]2CC[C@@]2(C)[C@H]1C[C@@H](OC(=O)CC)[C@@H]2OC(=O)CC` [Estriol tripropionate], for which the IC50 cell viability is above 45.8 µM (ICRF193 0 nM) and above 45.8 µM (ICRF193 200 nM).
On to `O=C(N[C@H](CO)[C@H](O)c1ccc([N+](=O)[O-])cc1)C(Cl)Cl` [Chloramphenicol], for which the IC50 cell viability runs as follows: (ICRF193 0 nM) above 45.8 µM; (ICRF193 200 nM) above 45.8 µM.
On to `Cc1ccsc1/C=C/C1=NCCCN1C` [Morantel tartrate], for which the IC50 cell viability was above 45.8 µM (ICRF193 0 nM) and above 45.8 µM (ICRF193 200 nM).
Take `COc1cc(OC)cc(OC)c1` [1,3,5-Trimethoxybenzene]: the IC50 cell viability was above 45.8 µM (ICRF193 0 nM) and above 45.8 µM (ICRF193 200 nM).
On to `CC(=O)N[C@@H](CCC(N)=O)C(=O)O` [Nalpha-Acetyl-L-glutamine], for which the IC50 cell viability reads like this: (ICRF193 0 nM) above 45.8 µM; (ICRF193 200 nM) above 45.8 µM.
Take `NCCC[C@H](N)C(=O)O` [ORNITHINE HYDROCHLORIDE]: the IC50 cell viability by setting is: (ICRF193 0 nM) above 45.8 µM; (ICRF193 200 nM) above 45.8 µM.
For `Cc1cc(C)cc(OCC2CNC(=O)O2)c1` (configuration not stated) [Metaxalone], the IC50 cell viability is above 45.8 µM (ICRF193 0 nM) and above 45.8 µM (ICRF193 200 nM).
Consider `N=C(N)NCCC[C@@H](N)C(=O)N[C@@H](CCCNC(=N)N)C(=O)N1CCC[C@H]1C(=O)N1C[C@H](O)C[C@H]1C(=O)NCC(=O)N[C@@H](Cc1cccs1)C(=O)N[C@@H](CO)C(=O)N1Cc2ccccc2C[C@@H]1C(=O)N1[C@H](C(=O)N[C@@H](CCCNC(=N)N)C(=O)O)C[C@@H]2CCCC[C@@H]21` [Icatibant], for which the IC50 cell viability was above 45.8 µM (ICRF193 0 nM) and above 45.8 µM (ICRF193 200 nM).
In the case of `C[C@H](Cc1cc2c(c(C(N)=O)c1)N(CCCO)CC2)NCCOc1ccccc1OCC(F)(F)F` [Silodosin], the IC50 cell viability was above 45.8 µM (ICRF193 0 nM) and above 45.8 µM (ICRF193 200 nM).
Consider `CN1[C@H]2CC[C@@H]1[C@@H](C(=O)O)[C@@H](OC(=O)c1ccccc1)C2` [Benzoylecgonine], for which the IC50 cell viability runs as follows: (ICRF193 0 nM) above 45.8 µM; (ICRF193 200 nM) above 45.8 µM.
Turning to `O=C(Cc1cccs1)N[C@@H]1C(=O)N2C(C(=O)[O-])=C(C[n+]3ccccc3)CS[C@H]12` [Cephaloridine], the IC50 cell viability by setting is: (ICRF193 0 nM) above 45.8 µM; (ICRF193 200 nM) above 45.8 µM.
With `N=C(N)NCCCC[C@@H]1NC(=O)CCSSC[C@@H](C(N)=O)NC(=O)[C@@H]2CCCN2C(=O)[C@H](Cc2c[nH]c3ccccc23)NC(=O)[C@H](CC(=O)O)NC(=O)CNC1=O` [Eptifibatide], the IC50 cell viability by setting is: (ICRF193 0 nM) above 45.8 µM; (ICRF193 200 nM) above 45.8 µM.
On to `CC(C)(Oc1ccc(Cl)cc1)C(=O)OCCCOC(=O)C(C)(C)Oc1ccc(Cl)cc1` [Cholesolvin], for which the IC50 cell viability is above 45.8 µM (ICRF193 0 nM) and above 45.8 µM (ICRF193 200 nM).
Consider `Cc1cn([C@H]2C[C@H](N=[N+]=[N-])[C@@H](CO)O2)c(=O)[nH]c1=O` [3'-Azido-3'-deoxythymidine], for which the IC50 cell viability is, setting by setting: (ICRF193 0 nM) above 45.8 µM; (ICRF193 200 nM) above 45.8 µM.
As for `O=C(O)[C@H](O)c1ccccc1` [D-(-)-Mandelic acid], the IC50 cell viability was above 45.8 µM (ICRF193 0 nM) and above 45.8 µM (ICRF193 200 nM).
On to `CC(=O)N(CC(O)CO)c1c(I)c(C(=O)NCC(O)CO)c(I)c(C(=O)NCC(O)CO)c1I` (configuration not stated) [Iohexol], for which the IC50 cell viability reads like this: (ICRF193 0 nM) above 45.8 µM; (ICRF193 200 nM) above 45.8 µM.
On to `O=c1n(CCCN2CCN(c3cccc(Cl)c3)CC2)nc2ccccn12` [Trazodone hydrochloride], for which the IC50 cell viability reads like this: (ICRF193 0 nM) above 45.8 µM; (ICRF193 200 nM) above 45.8 µM.
With `CC(C)Oc1ccc2c(=O)c(-c3ccccc3)coc2c1` [Ipriflavone], the IC50 cell viability is above 45.8 µM (ICRF193 0 nM) and above 45.8 µM (ICRF193 200 nM).
Take `Nc1ccc(S(=O)(=O)NC(=O)c2ccccc2)cc1` [Sulfabenzamide]: the IC50 cell viability is above 45.8 µM (ICRF193 0 nM) and above 45.8 µM (ICRF193 200 nM).
As to `CC[C@H]1OC(=O)[C@H](C)[C@@H](O[C@H]2C[C@@](C)(OC)[C@@H](O)[C@H](C)O2)[C@H](C)[C@@H](O[C@@H]2O[C@H](C)C[C@H](N(C)C)[C@H]2O)[C@](C)(O)C[C@@H](C)[C@@H]2N[C@@H](COCCOC)O[C@H]([C@H]2C)[C@]1(C)O` [Dirithromycin], the IC50 cell viability was above 45.8 µM (ICRF193 0 nM) and above 45.8 µM (ICRF193 200 nM).
For the molecule `CC1(C)S[C@@H]2[C@H](NC(=O)[C@H](N)c3ccccc3)C(=O)N2[C@H]1C(=O)O` [AMPICILLIN SODIUM], the IC50 cell viability was above 45.8 µM (ICRF193 0 nM) and above 45.8 µM (ICRF193 200 nM).
As to `CCCCCCCCCCCCCCCCCCCCCCCCCCCCO` [1-Octacosanol], the IC50 cell viability was above 45.8 µM (ICRF193 0 nM) and above 45.8 µM (ICRF193 200 nM).
`CC(C)(Oc1ccc(CCNC(=O)c2ccc(Cl)cc2)cc1)C(=O)O` [Bezafibrate] gave an IC50 cell viability (ICRF193 0 nM) above 45.8 µM and an IC50 cell viability (ICRF193 200 nM) above 45.8 µM.
Regarding `CC(=O)OCC(=O)NCCCOc1cccc(CN2CCCCC2)c1` [Roxatidine acetate hydrochloride], the IC50 cell viability is, setting by setting: (ICRF193 0 nM) above 45.8 µM; (ICRF193 200 nM) above 45.8 µM.
In the case of `CC(=C(CCO)SSCC1CCCO1)N(C=O)Cc1cnc(C)nc1N` (stereo in doubt) [Fursultiamine Hydrochloride], the IC50 cell viability was above 45.8 µM (ICRF193 0 nM) and above 45.8 µM (ICRF193 200 nM).
On to `CN1c2c([nH]c(N)nc2=O)NC[C@@H]1CNc1ccc(C(=O)N[C@@H](CCC(=O)O)C(=O)O)cc1` [Levomefolate calcium], for which the IC50 cell viability runs as follows: (ICRF193 0 nM) above 45.8 µM; (ICRF193 200 nM) above 45.8 µM.
Take `Oc1cc(O)c(Cl)cn1` [Gimeracil]: the IC50 cell viability is, setting by setting: (ICRF193 0 nM) above 45.8 µM; (ICRF193 200 nM) above 45.8 µM.
As to `C[C@]12CCC(=O)C[C@@H]1CC[C@@H]1[C@@H]2CC[C@]2(C)C=CC[C@@H]12` [Androstenone], the IC50 cell viability was above 45.8 µM (ICRF193 0 nM) and above 45.8 µM (ICRF193 200 nM).
Take `CCC(C)n1ncn(-c2ccc(N3CCN(c4ccc(OCC5COC(Cn6cncn6)(c6ccc(Cl)cc6Cl)O5)cc4)CC3)cc2)c1=O` (configuration not stated) [Itraconazole]: the IC50 cell viability is above 45.8 µM (ICRF193 0 nM) and above 45.8 µM (ICRF193 200 nM).
For `CC(=O)c1ccc(S(=O)(=O)NC(=O)NC2CCCCC2)cc1` [Acetohexamide], the IC50 cell viability reads like this: (ICRF193 0 nM) above 45.8 µM; (ICRF193 200 nM) above 45.8 µM.
In the case of `CC(C)(C)NC(=O)[C@H]1CC[C@H]2[C@@H]3CC=C4C=C(C(=O)O)CC[C@]4(C)[C@H]3CC[C@]12C` [Epristeride], the IC50 cell viability reads like this: (ICRF193 0 nM) above 45.8 µM; (ICRF193 200 nM) above 45.8 µM.
For the molecule `CC[C@H]1OC(=O)[C@H](C)C(=O)[C@H](C)[C@@H](O[C@@H]2O[C@H](C)C[C@H](N(C)C)[C@H]2O)[C@](C)(OC)C[C@@H](C)C(=O)[C@H](C)[C@H]2N(CCCCn3cnc(-c4cccnc4)c3)C(=O)O[C@]12C` [TELITHROMYCIN], the IC50 cell viability runs as follows: (ICRF193 0 nM) above 45.8 µM; (ICRF193 200 nM) above 45.8 µM.
Take `C/C=C/C=C/C(=O)O` [Sorbic acid]: the IC50 cell viability is above 45.8 µM (ICRF193 0 nM) and above 45.8 µM (ICRF193 200 nM).
As for `CC(C)CCON=O` [3-Methylbutyl nitrite], the IC50 cell viability reads like this: (ICRF193 0 nM) above 45.8 µM; (ICRF193 200 nM) above 45.8 µM.
